“Also recorded” adds a separate entry of the source.
What was measured:
HCT116 cells [1] = assay: NAD2H labeling from [2,3,3-2H]serine in cultured cells; assay type: cell-based
Protocol: (§1) Adherent cells. Cells were seeded in 6 well plates overnight and then were treated with ETC inhibitors. Serine-free DMEM with 10% dialyzed FBS was supplemented with 400 µM [2,3,3, 2H]serine. Medium was replaced by the isotope tracing medium with corresponding drugs, and cells were incubated for 3 h. Medium was aspirated, and metabolism was quenched with extraction buffer (40:40:20 acetonitrile:methanol: water with 0.5% formic acid; 40 μl of extraction solvent per 1 μl packed cell volume)(Lu et al., 2018). Plates were placed on dry ice for 10 mins, and thereafter the extraction solution was neutralized with 15% NH4HCO3 (70 μl for 800 μl extraction buffer). Cells were then scraped off from plates by using a cell lifter (Corning 3008), transferred into Eppendorf tubes and centrifuged in a benchtop microfuge at maximum speed for 30 min at 4° C. Supernatant was transferred to LC-MS vials for analysis.
LC-MS. […] Solvent A is 95:5 water: acetonitrile with 20 mM ammonium acetate and 20 mM ammonium hydroxide at pH 9.4, and solvent B is acetonitrile. The gradient was 0 min, 85% B; 2 min, 85% B; 3 min, 60% B; 9 min, 60% B; 9.5 min, 35% B; 13 min, 5% B; 15.5 min, 5% B; 16 min, 85% B; 20 min, stop run. Injection volume was 15 μL. The Q-Exactive Plus mass spectrometer was operated in negative ion mode scanning from m/z 70-1000 with a resolution (at m/z 200) of 140,000 (AGC target 3e6, Maximum IT 200 ms) (Wang et al., 2019). A second scan from m/z 640-765 with a resolution (at m/z 200) of 35,000 (AGC target 5e5, maximum IT 200 ms) was used to measure NAD(P), NAD(P)H, and their labeling. The purpose of the second scan was to enhance sensitivity for NAD(P)(H) by restricting the range of ions in the orbitrap and to maximize the accuracy of isotope ratios by decreasing the scan range and mass resolution (Su et al., 2017).
Calculation of 2H-serine contribution to malate, aspartate, and NADH: For malate and aspartate, the 2H-labeling fraction was measured directly (fractional size of 2H-peak relative to sum of all peaks, after isotope correction as above). For NADH, the 2H-labeling fraction was measured based on the active hydride labeling (x), which was determined from the labeling pattern of NAD+ and NADH by least square fitting in MATLAB of the observed experimental data (after natural isotope correction) to the below vectors (Liu et al., 2016a).

SHMT1 = biological target: T1, SHMT1 (Homo sapiens, UniProt P34896); assay: SHMT1 inhibition (Table 2); assay type: biochemical
T1 sequence (P34896 1-483): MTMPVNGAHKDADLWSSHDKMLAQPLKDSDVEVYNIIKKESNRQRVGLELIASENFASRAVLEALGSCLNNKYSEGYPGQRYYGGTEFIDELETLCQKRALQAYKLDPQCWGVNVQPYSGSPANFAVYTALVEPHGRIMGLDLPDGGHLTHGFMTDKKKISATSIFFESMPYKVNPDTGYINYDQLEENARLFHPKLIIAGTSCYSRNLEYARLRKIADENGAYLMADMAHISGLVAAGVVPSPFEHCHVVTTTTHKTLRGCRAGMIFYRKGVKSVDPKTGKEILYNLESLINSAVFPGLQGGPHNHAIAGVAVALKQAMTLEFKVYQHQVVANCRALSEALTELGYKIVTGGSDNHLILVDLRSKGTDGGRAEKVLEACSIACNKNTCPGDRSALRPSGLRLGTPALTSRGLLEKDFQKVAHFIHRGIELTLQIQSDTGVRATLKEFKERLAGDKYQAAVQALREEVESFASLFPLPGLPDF

SHMT2 = biological target: T2, SHMT2 (Homo sapiens, UniProt P34897); assay: SHMT2 inhibition (Table 2); assay type: biochemical
T2 sequence (P34897 30-504): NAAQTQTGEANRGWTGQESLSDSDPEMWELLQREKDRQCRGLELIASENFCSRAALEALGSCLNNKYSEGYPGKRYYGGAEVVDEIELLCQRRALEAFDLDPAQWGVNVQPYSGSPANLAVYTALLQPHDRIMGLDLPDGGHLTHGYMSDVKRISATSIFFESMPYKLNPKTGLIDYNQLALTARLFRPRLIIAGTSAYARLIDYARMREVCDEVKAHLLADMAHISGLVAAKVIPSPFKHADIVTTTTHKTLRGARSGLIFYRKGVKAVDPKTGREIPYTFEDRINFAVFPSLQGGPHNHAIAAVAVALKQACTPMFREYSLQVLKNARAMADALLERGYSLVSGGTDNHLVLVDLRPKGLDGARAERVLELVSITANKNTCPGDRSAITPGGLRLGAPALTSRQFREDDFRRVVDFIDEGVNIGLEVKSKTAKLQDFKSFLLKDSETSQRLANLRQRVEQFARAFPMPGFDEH

MTHFD2 = biological target: T3, MTHFD2 (Homo sapiens, UniProt P13995); assay: Enzymatic assay for MTHFD2 with increasing NADH; assay type: biochemical
T3 construct: purchased Raze Therapeutics (gift, not a catalogue product)
T3 sequence (P13995 36-350): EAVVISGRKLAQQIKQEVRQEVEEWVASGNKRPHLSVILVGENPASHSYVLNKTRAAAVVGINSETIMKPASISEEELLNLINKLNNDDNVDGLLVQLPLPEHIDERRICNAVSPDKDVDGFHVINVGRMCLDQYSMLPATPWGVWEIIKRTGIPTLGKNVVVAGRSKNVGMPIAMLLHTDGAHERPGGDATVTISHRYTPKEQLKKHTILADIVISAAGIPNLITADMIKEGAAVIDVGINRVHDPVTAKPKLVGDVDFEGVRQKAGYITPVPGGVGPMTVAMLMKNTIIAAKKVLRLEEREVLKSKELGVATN
Protocol: Enzymatic Assay for MTHFD2. NAD (Sigma N0632), NADH (Sigma N8129) and 5, 10-meTHF (Schircks Laboratories, 16.226) solution were freshly prepared each time in water. Reaction mixtures consisted of 50 mM KH2PO4 pH 7.4, 5 mM dithiothreitol (DTT), 5% DMSO, and 0.005 mg/mL MTHFD2 (obtained from Raze Therapeutics), and NAD and NADH as indicated in the Figures. Reaction mixtures were incubated for 5 min at 37° C. before initiation of the reaction by addition of 5,10-meTHF to a final concentration of 0.4 mM using multichannel. The plate was mixed for 5 s in the plate reader (Biotek Synergy HT), and the rate of change in absorbance at 340 nm due to NADH accumulation was recorded over the duration of linear NADH accumulation.
Enzymatic Assay for MDH. NAD and NADH solutions were freshly prepared in water; malate solution was prepared in 50 mM Tris-HCl and adjusted pH to 7.6 with 10 M KOH. […] The plate was mixed for 5 s in the plate reader, and absorbance at 340 nm recorded as above.
Enzymatic assay for PDH and KGDH: Pyruvate dehydrogenase and alpha-ketoglutarate dehydrogenase solutions were freshly prepared to a concentration 0.075 unit/ml with buffer containing 20 mM sodium phosphate and 1 mM MgCl2, pH7.2. […] The plate was mixed for 5 s in the plate reader, and absorbance at 340 nm recorded as above.

HCT116 xenograft tumors = assay: HCT116 xenograft tumors, metabolomics and [2,3,3-2H]serine tracing; assay type: in vivo, mice
Protocol: Mouse Xenograft and allograft. For tumor xenograft tracing experiments, 6- to 7-week-old male CD1/nude mice were injected in the rear flanks with HCT-116 (1×10^6 cells in 100 μL 1:1 PBS:Matrigel). For tumor allograft tracing experiment, 6- to 8-wk-old male C57BL6 mice were injected in the rear flank with KrasLSL.G12D/+x p53R172H/+x PdxCretg/+ pancreatic tumor tissue suspension (200 μL 1:1 DMEM:Matrigel). Jugular vein catheterization surgery was performed when tumor size reached 250 mm3 [volume=1/2 (length×width×height)]. […] Tracing experiments were performed after 1 week of post-surgery monitoring. Tumors were removed and immediately clamped to aluminum foil using Wollenberger clamp and stored in liquid nitrogen. For Long term storage, tissues were kept in −80° C. until future sample preparation.
Metabolites extraction from tissue, tumors and serum. Tissues and tumors were collected from mice and immediately clamped into liquid nitrogen using Wollenberger clamp, tissue were stored in −80° C. Frozen tissues were transferred into 2 ml Eppendorf tubes, which are precooled on dry ice, and pulverized by using cyromill. The resulting tissue powder was weighed (around 10 mg) and mixed well by vortexing in extraction buffer (40 μL extraction buffer per mg tissue). The extraction solution was neutralized with NH4HCO3 as above and centrifuged in a microfuge at maximum speed for 30 min at 4° C. Supernatant was transferred to LC-MS vials for analysis.
IACS-10759 is a potent mitochondrial complex I inhibitor with efficacy in inhibiting tumor growth and inducing apoptosis in models of brain cancer and acute myeloid leukemia. Molina, J. R. et al., Nat. Med. 24, 1036-1046 (2018). […] To check whether circulating serine contributes NADH when respiration is impaired in vivo, [2,3,3-^2H]serine was infused into tumor bearing mice.

HCT116 cells [2] = assay: Cell proliferation assay, HCT116; assay type: cell-based
Protocol: (§2) Cell Proliferation Assays. Cells were seeded in seeded in 96 well plates (Corning 3603) for overnight attachment. Medium (with or without drugs) was changed next day, and cell numbers were recorded using Thermofisher CyQUANT kit.

C2C12 cells = C2C12 cells treated with metformin, serine catabolism inhibition; assay type: cell-based; conditions: C2C12, 5 mM metformin, SHIN1 250 nM
Protocol: as §1, §2

liver NADH/NAD ratio = assay: Serine/metformin drinking water, liver metabolomics; assay type: in vivo, mice; conditions: 5% serine or 0.25% metformin drinking water for 2 weeks
[3] = cultured cells, complex I inhibitor added
[4] = IACS-10759 10 mg/kg gavage every day for 7 days, CD-1 nude mice

[H]/N=C(/N)N/C(=N/[H])NCCc1ccccc1 [phenformin]
fractional contribution of serine to NADH (HCT116 cells [1]; [3]): dramatically elevated

Cc1n[nH]c2c1C(c1cc(Cl)cc(Cl)c1)(C(C)C)C(C#N)=C(N)O2 (centres unmarked) [HK-14]
IC50 (SHMT1): 67 nM | IC50 (SHMT2): 131 nM

NC(=O)C1=CN([C@@H]2O[C@H](COP(=O)(O)OP(=O)(O)OC[C@H]3O[C@@H](n4cnc5c(N)ncnc54)[C@H](O)[C@@H]3O)[C@@H](O)[C@H]2O)C=CC1 [NADH]
NADH level up to which MTHFD2 maintains full activity (MTHFD2; NADH as competitive (product) inhibitor, adequate NAD): up to 200 μM | sensitivity of MTHFD2 to NADH, less than PDH, KGDH and malate dehydrogenase (MTHFD2; product inhibition by NADH): at least 10 fold

N#C/C(=C\c1cn(-c2ccccc2)c2ccccc12)C(=O)O [UK5099]
block of the pyruvate effect (rescue of NADH phenotypes) (HCT116 cells [1]; metformin-treated cells with pyruvate): does not block; also recorded: not blocked

Cc1nc(-c2nc(-c3ccc(OC(F)(F)F)cc3)no2)nn1Cc1cccc(N2CCC(S(C)(=O)=O)CC2)c1 [IACS-10759]
NADH/NAD ratio of tumors (HCT116 xenograft tumors; [4]): increased | intra-tumor lactate level (HCT116 xenograft tumors; [4]): increased | 2H-malate labeling from [2,3,3-2H]serine in tumors (HCT116 xenograft tumors; IACS-10759 10 mg/kg, 2.5 hours serine infusion): increased

CC1=C(C)C(=O)C(C)=C(C)C1=O [duroquinone]
fractional contribution of serine to NADH (HCT116 cells [1]; added to metformin-treated cells (HCT116, 5 mM metformin)): decreased

Cc1[nH]nc2c1C(c1cc(CO)cc(-c3ccccc3)c1)(C(C)C)C(C#N)=C(N)O2 (centres unmarked) [HK-X2 (SHIN1)]
cell proliferation / growth (HCT116 cells [2]; HCT116, in the presence of metformin): enhances growth; also recorded: augmented proliferation | cell proliferation / growth (HCT116 cells [2]; HCT116, in the presence of phenformin or rotenone): enhances growth; also recorded: augmented proliferation | cell proliferation (HCT116 cells [2]; HCT116, standard tissue culture conditions): decreased cell proliferation | cell growth (HCT116 cells [2]; HCT116 WT, hypoxia (0.5% O2), low doses of SHIN1): modestly increased cell growth | aspartate (C2C12 cells): enhances aspartate | cell growth / tolerance of metformin (C2C12 cells): restores; also recorded: better tolerated metformin

Cc1n[nH]c2c1C(c1cc(Cl)cc(C(F)(F)F)c1)(C(C)C)C(C#N)=C(N)O2 (centres unmarked) [HK-15]
IC50 (SHMT1): 20 nM | IC50 (SHMT2): 35 nM

N[C@@H](CO)C(=O)O [serine]
NADH/NAD ratio in liver (liver NADH/NAD ratio): significantly increase | NADH/NAD ratio in liver (liver NADH/NAD ratio; listed as Serine): increased

CN(C)C(=N)N=C(N)N [metformin, reference compound]
fractional contribution of serine to NADH (HCT116 cells [1]; [3]): dramatically elevated | NADH/NAD ratio in liver (liver NADH/NAD ratio): increased; also recorded: significantly increase

Cc1n[nH]c2c1C(c1cc(N3CCCC3)cc(C(F)(F)F)c1)(C(C)C)C(C#N)=C(N)O2 (centres unmarked) [HK-X1]
IC50 (SHMT1): 13 nM | IC50 (SHMT2): 66 nM

Cc1n[nH]c2c1C(c1cc(Cl)cc(Cl)c1)(C1CCC1)C(C#N)=C(N)O2 (centres unmarked) [HK-10]
IC50 (SHMT1): 593 nM | IC50 (SHMT2): 1190 nM

— patent US20230100559A1, “Compositions and Methods for Treatment of Disease by Manipulation of Serine Metabolism” (The Trustees of Princeton University, priority 2020, published 2023)
